# Test results as given in ChEMBL document CHEMBL1152022, “Double-headed molecules based on linear or angular psoralen and -methylene--butyrolactone: a search for non-phototoxic potential antiproliferative compounds” (Bioorg Med Chem Lett, 1993).
# The source made the active and inactive calls. The calls are words filed in the database; no cut-off is given here.
# Assays:
# Type in all cases: functional, organism-based
# [1] = species: Mus musculus; experiment: Phototoxicity was evaluated at a concentration of 27.7 mM at a UVA dose of 12 J/cm**2 in mouse ear-swelling test; non-phototoxic
# [2] = species: Mus musculus; experiment: Phototoxicity was evaluated at a concentration of 1.4 mM and with an irradiation dose of 6 J/cm**2 in mouse ear-swelling test; non-phototoxic
# [3] = species: Mus musculus; experiment: Phototoxicity was evaluated at a concentration of 1.4 mM and with an irradiation dose of 6 J/cm**2 in mouse ear-swelling test; induced marked erythema.
# [4] = species: Mus musculus; experiment: Phototoxicity was evaluated at a concentration of 13.9 mM and a UVA dose of 10 J/cm**2 in mouse ear-swelling test; non-phototoxic
structure (smiles),measurement,setting,value
C=C1CC(CCCCCCCCCCOc2c3ccoc3cc3oc(=O)ccc23)OC1=O (centres undefined),Phototoxicity,[1],Not toxic
same,Phototoxicity,[2],Not toxic
COc1c2ccoc2cc2oc(=O)ccc12,Phototoxicity,[3],Active
C=C1CC(CCCCCCCCCCc2cc3c(ccc4ccc(=O)oc43)o2)OC1=O (centres undefined),Phototoxicity,[4],Not toxic
